Measured values taken from US20260217683A1, “PYRIDAZINONE HETEROCYCLIC COMPOUND MYOSIN II INHIBITOR AND USE THEREOF” (Xizang Haisco Pharmaceutical Co., Ltd., priority 2023, published 2026).

What was measured:
cardiac myosin SII = target: T1, cardiac myosin SII (Bos taurus, UniProt Q9BE39); experiment: Inhibition of hydrolysis of ATP by cardiac myosin SII; type: biochemical; conditions: 100 μM compound
T1 construct: purchased Cytoskeleton #MYO3-A
How it was run: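 Bovine cardiac myosin with preformed F-actin in 15 mM Tris-HCl pH 7.5, 10 mM KCl, 2 mM MgCl2, 0.1 mM EGTA; compounds at 100 μM final, ATP from 3 mM working solution, 2 h at 37 °C. Released Pi measured colorimetrically at 650 nm against a Pi standard curve; % inhibition vs. DMSO control.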

smooth muscle myosin S1 = target: T2, smooth muscle myosin S1 (Gallus gallus, UniProt P10587); experiment: Inhibition of hydrolysis of ATP by smooth muscle myosin S1 fragments; type: biochemical; conditions: 100 μM compound
T2 construct: purchased Cytoskeleton #CS-MYS05
T2 sequence (P10587 84-789 limits assumed): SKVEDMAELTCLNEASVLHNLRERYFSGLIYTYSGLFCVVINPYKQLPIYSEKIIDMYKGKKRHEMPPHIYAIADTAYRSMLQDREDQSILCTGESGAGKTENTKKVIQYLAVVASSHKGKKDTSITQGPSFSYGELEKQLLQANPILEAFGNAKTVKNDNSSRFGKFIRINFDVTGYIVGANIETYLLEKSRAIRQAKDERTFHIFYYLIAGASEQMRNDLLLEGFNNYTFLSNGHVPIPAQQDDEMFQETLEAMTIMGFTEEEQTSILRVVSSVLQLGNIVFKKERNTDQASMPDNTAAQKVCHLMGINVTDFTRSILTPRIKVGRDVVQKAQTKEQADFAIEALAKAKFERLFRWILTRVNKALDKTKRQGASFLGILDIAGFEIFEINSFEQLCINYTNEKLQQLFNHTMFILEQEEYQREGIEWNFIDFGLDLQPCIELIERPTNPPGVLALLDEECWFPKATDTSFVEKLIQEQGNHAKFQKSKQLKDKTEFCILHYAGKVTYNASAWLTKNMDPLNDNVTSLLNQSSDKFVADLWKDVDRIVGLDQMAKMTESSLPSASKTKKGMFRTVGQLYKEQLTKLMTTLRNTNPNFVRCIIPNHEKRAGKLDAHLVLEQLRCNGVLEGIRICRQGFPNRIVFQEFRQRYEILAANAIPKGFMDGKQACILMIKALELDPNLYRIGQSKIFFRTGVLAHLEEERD
T2 sequence (P02607 whole entry partner, the tested form may be a part): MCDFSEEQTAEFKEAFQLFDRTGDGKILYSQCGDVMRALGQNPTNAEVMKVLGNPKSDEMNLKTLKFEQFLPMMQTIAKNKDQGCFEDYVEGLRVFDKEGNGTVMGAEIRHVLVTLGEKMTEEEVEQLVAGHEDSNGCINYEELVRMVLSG
How it was run: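 Smooth muscle myosin S1 fragment (0.7 mg/mL in PM12 buffer with 1 mM DTT) was mixed with compound and F-actin polymer prepared from cardiac actin, then 5 mM ATP working solution started the reaction at 37° C. for 20 min. Released Pi was measured with CytoPhos reagent at 650 nm against a standard curve, and inhibition was calculated relative to positive control wells.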

CYP1A2 = target: T3, CYP1A2 (Homo sapiens, UniProt P05177); experiment: CYP450 enzyme inhibition, human liver microsomes, CYP1A2; type: in vitro ADME
T3 construct: incubated with human liver microsomes and test compounds of different concentrations; from tissue; host or cells: human liver microsomes
T3 sequence (P05177 1-516): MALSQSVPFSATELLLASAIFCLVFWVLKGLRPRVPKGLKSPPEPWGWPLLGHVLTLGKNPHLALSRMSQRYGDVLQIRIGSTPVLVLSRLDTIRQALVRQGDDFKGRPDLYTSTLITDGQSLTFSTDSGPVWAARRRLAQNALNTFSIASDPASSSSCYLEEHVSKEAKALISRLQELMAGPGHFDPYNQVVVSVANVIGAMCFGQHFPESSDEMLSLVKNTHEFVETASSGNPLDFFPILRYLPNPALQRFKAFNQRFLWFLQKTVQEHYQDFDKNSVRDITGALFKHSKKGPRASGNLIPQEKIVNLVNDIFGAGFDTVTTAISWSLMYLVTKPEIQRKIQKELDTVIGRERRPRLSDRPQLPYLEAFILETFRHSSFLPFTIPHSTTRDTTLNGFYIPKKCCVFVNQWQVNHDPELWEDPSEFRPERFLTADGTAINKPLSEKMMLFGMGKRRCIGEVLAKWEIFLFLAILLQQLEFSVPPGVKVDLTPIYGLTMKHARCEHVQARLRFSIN
Description: (§1) The purpose of this study was to evaluate the effect of the test compound on the activity of five isoenzymes (CYP1A2, CYP2C9, CYP2C19, CYP2D6 and CYP3A4) of human liver microsomal cytochrome P450 (CYP) by using an in vitro testing system. The specific probe substrates of CYP450 isoenzymes were incubated with human liver microsomes and test compounds of different concentrations, and reduced nicotinamide adenine dinucleotide phosphate (NADPH) was added to initiate the reaction. After the completion of the reaction, the sample was treated and liquid chromatography-tandem mass spectrometry (LC-MS/MS) was used to quantitatively detect metabolites produced by specific substrates, changes in CYP enzyme activity were determined, and IC50 value was calculated to evaluate the inhibitory potential of the test compound on each CYP enzyme subtype.

CYP2C9 = target: T4, CYP2C9 (Homo sapiens, UniProt P11712); experiment: CYP450 enzyme inhibition, human liver microsomes, CYP2C9; type: in vitro ADME
T4 construct: incubated with human liver microsomes and test compounds of different concentrations; from tissue; host or cells: human liver microsomes
T4 sequence (P11712 whole entry): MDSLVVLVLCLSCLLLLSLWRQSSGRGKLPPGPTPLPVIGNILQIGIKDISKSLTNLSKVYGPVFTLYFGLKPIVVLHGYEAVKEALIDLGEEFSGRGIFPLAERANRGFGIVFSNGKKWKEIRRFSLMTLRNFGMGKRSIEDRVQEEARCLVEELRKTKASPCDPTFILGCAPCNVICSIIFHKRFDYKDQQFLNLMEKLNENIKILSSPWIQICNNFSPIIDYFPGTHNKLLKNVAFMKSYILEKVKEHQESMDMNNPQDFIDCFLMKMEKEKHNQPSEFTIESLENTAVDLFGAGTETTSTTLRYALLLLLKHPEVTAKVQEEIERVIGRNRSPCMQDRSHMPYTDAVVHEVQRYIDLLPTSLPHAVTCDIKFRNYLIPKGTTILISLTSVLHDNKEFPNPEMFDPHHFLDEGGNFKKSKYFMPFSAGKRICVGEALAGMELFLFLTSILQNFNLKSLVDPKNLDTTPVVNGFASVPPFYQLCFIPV
Description: as §1

CYP2C19 = target: T5, CYP2C19 (Homo sapiens, UniProt P33261); experiment: CYP450 enzyme inhibition, human liver microsomes, CYP2C19; type: in vitro ADME
T5 construct: incubated with human liver microsomes and test compounds of different concentrations; from tissue; host or cells: human liver microsomes
T5 sequence (P33261 whole entry): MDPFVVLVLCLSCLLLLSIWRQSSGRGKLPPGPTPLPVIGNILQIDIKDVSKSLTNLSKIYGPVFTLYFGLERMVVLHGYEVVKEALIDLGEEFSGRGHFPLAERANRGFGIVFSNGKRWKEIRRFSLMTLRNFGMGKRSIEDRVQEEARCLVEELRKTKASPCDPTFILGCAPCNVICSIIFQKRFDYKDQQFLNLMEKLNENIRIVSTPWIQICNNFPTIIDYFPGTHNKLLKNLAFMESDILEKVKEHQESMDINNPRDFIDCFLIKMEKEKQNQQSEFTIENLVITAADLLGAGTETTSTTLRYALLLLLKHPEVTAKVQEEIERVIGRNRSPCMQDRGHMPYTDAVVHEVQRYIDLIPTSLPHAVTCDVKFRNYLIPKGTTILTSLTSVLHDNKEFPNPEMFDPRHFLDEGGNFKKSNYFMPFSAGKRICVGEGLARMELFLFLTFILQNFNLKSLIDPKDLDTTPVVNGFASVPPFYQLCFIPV
Description: as §1

CYP3A4 = target: T6, CYP3A4 (Homo sapiens, UniProt P08684); experiment: CYP450 enzyme inhibition, human liver microsomes, CYP3A4; type: in vitro ADME
T6 construct: incubated with human liver microsomes and test compounds of different concentrations; from tissue; host or cells: human liver microsomes
T6 sequence (P08684 whole entry): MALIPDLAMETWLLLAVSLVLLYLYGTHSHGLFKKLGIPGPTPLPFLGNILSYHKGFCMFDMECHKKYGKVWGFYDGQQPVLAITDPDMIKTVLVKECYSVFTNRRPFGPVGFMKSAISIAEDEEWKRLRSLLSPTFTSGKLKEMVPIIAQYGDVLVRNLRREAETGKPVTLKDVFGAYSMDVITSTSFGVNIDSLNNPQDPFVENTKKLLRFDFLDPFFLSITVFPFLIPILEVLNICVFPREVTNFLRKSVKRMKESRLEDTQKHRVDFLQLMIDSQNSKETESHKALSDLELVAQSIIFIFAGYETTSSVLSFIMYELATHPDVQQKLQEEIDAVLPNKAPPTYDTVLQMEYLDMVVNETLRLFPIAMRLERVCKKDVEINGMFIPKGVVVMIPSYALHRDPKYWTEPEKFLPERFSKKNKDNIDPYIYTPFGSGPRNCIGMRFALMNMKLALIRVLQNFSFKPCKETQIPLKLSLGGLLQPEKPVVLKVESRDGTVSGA
Description: as §1

T1 sequence (Q9BE39 whole entry): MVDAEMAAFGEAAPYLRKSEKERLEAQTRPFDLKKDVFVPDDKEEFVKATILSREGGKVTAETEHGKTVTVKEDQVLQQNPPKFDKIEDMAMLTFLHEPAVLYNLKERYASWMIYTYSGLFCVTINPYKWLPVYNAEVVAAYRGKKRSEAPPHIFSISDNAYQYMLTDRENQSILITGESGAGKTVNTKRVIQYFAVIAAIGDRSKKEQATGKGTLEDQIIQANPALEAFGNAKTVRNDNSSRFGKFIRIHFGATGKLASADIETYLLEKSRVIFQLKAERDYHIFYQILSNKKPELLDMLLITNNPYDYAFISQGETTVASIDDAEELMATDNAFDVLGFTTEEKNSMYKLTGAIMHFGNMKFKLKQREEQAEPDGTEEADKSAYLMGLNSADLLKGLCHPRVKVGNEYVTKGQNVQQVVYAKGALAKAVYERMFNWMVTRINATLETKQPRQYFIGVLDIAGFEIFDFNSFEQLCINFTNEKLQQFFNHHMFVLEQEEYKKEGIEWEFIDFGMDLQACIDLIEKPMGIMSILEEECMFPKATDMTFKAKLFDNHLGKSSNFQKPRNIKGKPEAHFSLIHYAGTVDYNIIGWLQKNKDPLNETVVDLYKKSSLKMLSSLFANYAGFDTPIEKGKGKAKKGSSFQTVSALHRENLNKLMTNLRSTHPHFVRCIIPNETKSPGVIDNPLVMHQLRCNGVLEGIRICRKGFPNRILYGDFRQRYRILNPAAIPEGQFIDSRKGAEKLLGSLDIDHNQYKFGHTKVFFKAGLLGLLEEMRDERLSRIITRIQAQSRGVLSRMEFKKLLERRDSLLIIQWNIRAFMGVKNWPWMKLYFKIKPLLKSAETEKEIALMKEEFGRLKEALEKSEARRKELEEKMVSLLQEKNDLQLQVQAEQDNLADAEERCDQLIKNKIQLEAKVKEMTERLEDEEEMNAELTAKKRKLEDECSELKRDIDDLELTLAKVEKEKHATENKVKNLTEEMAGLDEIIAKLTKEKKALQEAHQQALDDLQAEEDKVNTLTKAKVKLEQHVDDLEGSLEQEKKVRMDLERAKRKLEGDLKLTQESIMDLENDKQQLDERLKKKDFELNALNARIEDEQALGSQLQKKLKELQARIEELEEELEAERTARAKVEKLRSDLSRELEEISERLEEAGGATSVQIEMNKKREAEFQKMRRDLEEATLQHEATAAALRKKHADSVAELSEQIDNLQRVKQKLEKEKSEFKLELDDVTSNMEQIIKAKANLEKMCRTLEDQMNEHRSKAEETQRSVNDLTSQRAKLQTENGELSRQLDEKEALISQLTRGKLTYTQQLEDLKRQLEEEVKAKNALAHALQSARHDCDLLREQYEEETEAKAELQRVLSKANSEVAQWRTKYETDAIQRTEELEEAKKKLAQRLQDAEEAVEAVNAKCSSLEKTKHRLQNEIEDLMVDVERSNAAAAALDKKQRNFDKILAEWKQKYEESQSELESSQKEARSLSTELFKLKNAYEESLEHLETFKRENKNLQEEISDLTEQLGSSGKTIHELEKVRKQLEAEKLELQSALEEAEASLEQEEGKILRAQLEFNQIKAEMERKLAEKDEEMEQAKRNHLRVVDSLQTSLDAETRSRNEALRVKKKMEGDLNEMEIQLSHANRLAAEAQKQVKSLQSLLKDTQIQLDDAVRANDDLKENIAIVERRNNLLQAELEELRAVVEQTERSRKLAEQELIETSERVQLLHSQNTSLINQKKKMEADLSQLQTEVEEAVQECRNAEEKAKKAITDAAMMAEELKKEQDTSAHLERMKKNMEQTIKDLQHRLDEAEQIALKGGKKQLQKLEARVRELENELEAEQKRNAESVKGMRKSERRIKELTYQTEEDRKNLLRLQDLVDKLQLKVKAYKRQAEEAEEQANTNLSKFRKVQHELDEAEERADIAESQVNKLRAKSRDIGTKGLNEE
T1 sequence (P85100 whole entry partner): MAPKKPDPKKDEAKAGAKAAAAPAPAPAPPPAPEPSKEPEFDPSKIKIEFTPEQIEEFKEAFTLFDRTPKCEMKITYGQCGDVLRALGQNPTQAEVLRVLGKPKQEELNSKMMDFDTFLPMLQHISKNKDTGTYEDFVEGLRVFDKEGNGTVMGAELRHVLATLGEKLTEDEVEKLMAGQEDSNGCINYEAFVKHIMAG
T1 sequence (Q3SZE5 whole entry partner): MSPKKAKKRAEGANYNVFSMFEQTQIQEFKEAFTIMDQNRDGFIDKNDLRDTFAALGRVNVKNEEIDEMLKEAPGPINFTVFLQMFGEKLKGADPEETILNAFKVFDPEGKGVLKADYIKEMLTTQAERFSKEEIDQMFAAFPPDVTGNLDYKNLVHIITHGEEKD

inhibition at 100 µM (cardiac myosin SII) [%] | inhibition at 100 µM (smooth muscle myosin S1) [%] | IC50 (CYP1A2) [µM] | IC50 (CYP2C9) [µM] | IC50 (CYP2C19) [µM] | IC50 (CYP3A4) [µM] | Structure (SMILES)
1.5 | 3.3 |  |  |  |  | O=c1ccc(-c2cnc(OCC(F)(F)F)nc2)nn1Cc1ccc2c(c1)CCC2 [Compound 57]
 |  | > 30 | > 30 | > 30 | > 30 | O=C1CCc2ccc(Cn3nc(-c4cnc(OCC(F)(F)F)nc4)ccc3=O)cc21 [Compound 88]
 | -9 | > 30 | > 30 | > 30 | > 30 | O=C1CCc2ccc(Cn3nc(-c4cnc(OCC(F)F)nc4)ccc3=O)cc21 [Compound 131]
14 | 3 | > 30 | > 30 | > 30 | > 30 | O=C1CCc2ccc(Cn3nc(-c4cnc(OC5CC(F)(F)C5)nc4)ccc3=O)cc21 [Compound 141]
10 | 2 | > 30 | > 30 | > 30 | > 30 | O=C1CCc2ccc(Cn3nc(-c4cnc(O[C@@H]5CCOC5)nc4)ccc3=O)cc21 [Compound 149]
15 | 4 |  |  |  |  | O=C1CCc2ccc(Cn3nc(-c4cnc(O[C@H]5CCOC5)nc4)ccc3=O)cc21 [Compound 150]
-2 | 2 | > 30 | > 30 | > 30 | > 30 | O=C1CCc2ccc(Cn3nc(-c4cnc(Oc5cncc(Cl)c5)nc4)ccc3=O)cc21 [Compound 151]
10 | 13 | > 30 | > 30 | > 30 | > 30 | N#CC1(COc2ncc(-c3ccc(=O)n(Cc4ccc5c(c4)C(=O)CC5)n3)cn2)CC1 [Compound 158]
4 | 17 | > 30 | > 30 | > 30 | > 30 | O=C1CCc2ccc(Cn3nc(-c4cnc(OC5COCC5(F)F)nc4)ccc3=O)cc21 (stereo not drawn) [Compound 164]
 | 12 | > 30 | > 30 | > 30 | > 30 | O=C1CCc2c(F)cc(Cn3nc(-c4cnc(O[C@H]5CCOC5)nc4)ccc3=O)cc21 [Compound 165]
4 | 17 | > 30 | > 30 | > 30 | > 30 | O=C1CCc2c(F)cc(Cn3nc(-c4cnc(OCC(F)F)nc4)ccc3=O)cc21 [Compound 167]
